# Test results from ChEMBL document CHEMBL1125524, “Adenosine A1 antagonists. 2. Structure-activity relationships on diuretic activities and protective effects against acute renal failure” (J Med Chem, 1992).
# Assays:
# Rattus norvegicus [1] = assay: Percent inhibition of Urea nitrogen by the compound given as ratio of UN value in treated to vehicle treated ones after intraperitoneal administration of 1 mg/kg of compound to rats(vehicle 154+/-7); assay type: functional; details: ip
# Rattus norvegicus [2] = assay: Ratio of urinary excretion value (urinary volume) in treated rats to that in control rats, at a peroral dose of 6.25 mg/Kg; assay type: functional, Urine
# Adenosine A2 receptor = Adenosine A2 receptor (Rattus norvegicus, UniProt P29276+P30543)
# Rattus norvegicus [3] = assay: Serum creatinine concentration measured after intraperitoneal administration of 1 mg/kg of compound to rats(vehicle 4.91+/-0.10); assay type: functional
# Rattus norvegicus [4] = assay: Percent inhibition of serum creatinine by the compound given as ratio of Cr value in treated to vehicle treated ones after intraperitoneal administration of 1 mg/kg of compound to rats(vehicle 4.91+/-0.10); assay type: functional; details: ip
# Adenosine receptor A1 = target: T1, Adenosine receptor A1 (Cavia porcellus, UniProt P47745)
# T1 sequence (P47745 whole entry): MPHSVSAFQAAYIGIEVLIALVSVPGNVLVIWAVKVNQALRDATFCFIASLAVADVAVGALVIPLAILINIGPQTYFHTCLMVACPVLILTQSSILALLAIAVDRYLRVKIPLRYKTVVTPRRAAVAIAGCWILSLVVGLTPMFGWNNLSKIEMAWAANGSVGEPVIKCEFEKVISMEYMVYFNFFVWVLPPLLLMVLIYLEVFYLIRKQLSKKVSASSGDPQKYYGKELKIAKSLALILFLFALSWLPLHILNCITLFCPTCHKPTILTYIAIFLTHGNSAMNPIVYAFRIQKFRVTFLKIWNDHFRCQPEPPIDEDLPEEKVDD
# Description: Binding affinity against adenosine A1 receptor in guinea pig forebrain membranes using N6-[3H]cyclohexyladenosine as radioligand
# Rattus norvegicus [5] = assay: Ratio of urinary excretion value (Na+ concentration) in treated rats to that in control rats, at a peroral dose of 6.25 mg/Kg; assay type: functional, Urine
# Rattus norvegicus [6] = assay: Urea nitrogen concentration measured after intraperitoneal administration of 1 mg/kg of compound to rats(vehicle 154+/-7); assay type: functional
# Rattus norvegicus [7] = assay: Ratio of urinary excretion value (Na+ concentration) in treated rats to that in control rats, at a peroral dose of 0.4 mg/Kg; assay type: functional, Urine
# Rattus norvegicus [8] = assay: Percent inhibition of Urea nitrogen by the compound given as ratio of UN value in treated to vehicle treated ones after intraperitoneal administration of 1 mg/kg of compound to rats(vehicle 138.8+/-7.8); assay type: functional; details: ip
# Rattus norvegicus [9] = assay: Ratio of urinary excretion value (urinary volume) in treated rats to that in control rats, at a peroral dose of 0.4 mg/Kg; assay type: functional, Urine
# Rattus norvegicus [10] = assay: Ratio of urinary excretion value (Na+ concentration) in treated rats to that in control rats, at a peroral dose of 1.6 mg/Kg; assay type: functional, Urine
# Rattus norvegicus [11] = assay: Ratio of urinary excretion value (urinary volume) in treated rats to that in control rats, at a peroral dose of 1.6 mg/Kg; assay type: functional, Urine
# Rattus norvegicus [12] = assay: Urea nitrogen concentration measured after intraperitoneal administration of 1 mg/kg of compound to rats(vehicle 156.2+/-6.1); assay type: functional
# Rattus norvegicus [13] = assay: Percent inhibition of Urea nitrogen by the compound given as ratio of UN value in treated to vehicle treated ones after intraperitoneal administration of 1 mg/kg of compound to rats(vehicle 156.2+/-6.1); assay type: functional; details: ip
# Rattus norvegicus [14] = assay: Serum creatinine concentration measured after intraperitoneal administration of 1 mg/kg of compound to rats(vehicle 4.82+/-0.24); assay type: functional
# Rattus norvegicus [15] = assay: Urea nitrogen concentration measured after intraperitoneal administration of 1 mg/kg of compound to rats(vehicle 138.8+/-7.8); assay type: functional
# Rattus norvegicus [16] = assay: Serum creatinine concentration measured after intraperitoneal administration of 1 mg/kg of compound to rats(vehicle 4.74+/-0.31); assay type: functional
# Rattus norvegicus [17] = assay: Effect on urinary excretion potassium and sodium after oral administration of 1.6 mg/kg to rats(potassium and sodium excretion in control rat is 0.174+/-0.013); assay type: functional, Urine
# Rattus norvegicus [18] = assay: Ratio of sodium ion/potassium ion concentration in treated rats to that in control rats, at a peroral dose of 1.6 mg/Kg; assay type: functional
# Rattus norvegicus [19] = assay: Ratio of sodium ion/potassium ion concentration in treated rats to that in control rats, at a peroral dose of 0.4 mg/Kg; assay type: functional
# Rattus norvegicus [20] = assay: Percent inhibition of serum creatinine by the compound given as ratio of Cr value in treated to vehicle treated ones after intraperitoneal administration of 1 mg/kg of compound to rats(vehicle 4.82+/-0.24); assay type: functional; details: ip
# Rattus norvegicus [21] = assay: Percent inhibition of serum creatinine by the compound given as ratio of Cr value in treated to vehicle treated ones after intraperitoneal administration of 1 mg/kg of compound to rats(vehicle 4.74+/-0.31); assay type: functional; details: ip
# Rattus norvegicus [22] = assay: Oral diuretic activity was measured after oral administration of 1.6 mg/kg to rats(control volume is 0.86+/-0.09); assay type: functional, Urine
# Rattus norvegicus [23] = assay: Oral diuretic activity was measured after oral administration of 0.4 mg/kg to rats(control volume is 1.15+/-0.17); assay type: functional, Urine
# Rattus norvegicus [24] = assay: Effect on urinary excretion potassium and sodium after oral administration of 0.4 mg/kg to rats(potassium and sodium excretion in control rat is 0.180+/-0.017); assay type: functional, Urine
# Rattus norvegicus [25] = assay: Oral diuretic activity was measured after oral administration of 25 mg/kg to rats(control volume is […]+/-[…]); assay type: functional, Urine
# Rattus norvegicus [26] = assay: Effect on urinary excretion potassium and sodium after oral administration of 0.4 mg/kg to rats(potassium and sodium excretion in control rat is 0.261+/-0.0087); assay type: functional, Urine
# Rattus norvegicus [27] = assay: Percent inhibition of serum creatinine by the compound given as ratio of Cr value in treated to vehicle treated ones after intraperitoneal administration of 1 mg/kg of compound to rats(vehicle 4.41+/-0.17); assay type: functional; details: ip
# Rattus norvegicus [28] = assay: Percent inhibition of Urea nitrogen by the compound given as ratio of UN value in treated to vehicle treated ones after intraperitoneal administration of 1 mg/kg of compound to rats(vehicle 147.9+/-6.1); assay type: functional; details: ip
# Rattus norvegicus [29] = assay: Serum creatinine concentration measured after intraperitoneal administration of 1 mg/kg of compound to rats(vehicle 4.41+/-0.17); assay type: functional
# Rattus norvegicus [30] = assay: Urea nitrogen concentration measured after intraperitoneal administration of 1 mg/kg of compound to rats(vehicle 147.9+/-6.1); assay type: functional
# Rattus norvegicus [31] = assay: Oral diuretic activity was measured after oral administration of 0.4 mg/kg to rats(control volume is […]+/-[…]); assay type: functional, Urine
# Rattus norvegicus [32] = assay: Effect on urinary excretion potassium and sodium after oral administration of 25 mg/kg to rats(potassium and sodium excretion in control rat is 0.252+/-0.022); assay type: functional, Urine
# Rattus norvegicus [33] = assay: Ratio of urinary excretion value (urinary volume) in treated rats to that in control rats, at a peroral dose of 25 mg/Kg; assay type: functional, Urine
# Rattus norvegicus [34] = assay: Ratio of urinary excretion value (Na+ concentration) in treated rats to that in control rats, at a peroral dose of 25 mg/Kg; assay type: functional, Urine
structure (smiles),measurement,setting,value
CCCn1c(=O)[nH]c(=O)c2[nH]c(C3CCCC3)nc21,inhibition in vivo at 1 mg/kg,Rattus norvegicus [1],24%
same,T/C,Rattus norvegicus [2],1.76
same,Ki,Adenosine A2 receptor,> 100000 nM
same,Cr,Rattus norvegicus [3],3.51 mg/dL
same,inhibition in vivo at 1 mg/kg,Rattus norvegicus [4],28%
same,Ki,Adenosine receptor A1,1400 nM
same,T/C,Rattus norvegicus [5],2.07
same,UN,Rattus norvegicus [6],117 mg/dL
CCCCn1c(=O)c2nc(C3CCCC3)[nH]c2n(CCCC)c1=O,T/C,Rattus norvegicus [7],1.61
same,inhibition in vivo at 1 mg/kg,Rattus norvegicus [8],56%
same,Ki,Adenosine A2 receptor,170 nM
same,T/C,Rattus norvegicus [9],1.26
same,T/C,Rattus norvegicus [10],1.72
same,T/C,Rattus norvegicus [11],1.86
same,UN,Rattus norvegicus [12],153.6 mg/dL
same,inhibition in vivo at 1 mg/kg,Rattus norvegicus [13],2%
same,Cr,Rattus norvegicus [14],4.03 mg/dL
same,UN,Rattus norvegicus [15],75 mg/dL
same,Cr,Rattus norvegicus [16],2.74 mg/dL
same,Na,Rattus norvegicus [17],0.299 m equiv 6hr-1 100g-1
same,Na+/K+,Rattus norvegicus [18],1.32
same,Na+/K+,Rattus norvegicus [19],1.23
same,inhibition in vivo at 1 mg/kg,Rattus norvegicus [20],16%
same,inhibition in vivo at 1 mg/kg,Rattus norvegicus [21],42%
same,Urine volume,Rattus norvegicus [22],1.6 ml 6hr-1 100g-1
same,Urine volume,Rattus norvegicus [23],1.45 ml 6hr-1 100g-1
same,Ki,Adenosine receptor A1,4.2 nM
same,Na,Rattus norvegicus [24],0.309 m equiv 6hr-1 100g-1
CCCn1c(=O)c2nc(C3CC4C=CC3C4)[nH]c2n(CCC)c1=O (stereo in doubt; 17),T/C,Rattus norvegicus [2],2.56
same,Urine volume,Rattus norvegicus [25],2.47 ml 6hr-1 100g-1
same,T/C,Rattus norvegicus [7],0.89
same,Ki,Adenosine A2 receptor,480 nM
same,Na,Rattus norvegicus [26],0.233 m equiv 6hr-1 100g-1
same,inhibition in vivo at 1 mg/kg,Rattus norvegicus [27],53%
same,T/C,Rattus norvegicus [9],0.93
same,inhibition in vivo at 1 mg/kg,Rattus norvegicus [28],56%
same,Cr,Rattus norvegicus [29],2.08 mg/dL
same,Na+/K+,Rattus norvegicus [19],0.98
same,UN,Rattus norvegicus [30],80.4 mg/dL
same,Urine volume,Rattus norvegicus [31],1.32 ml 6hr-1 100g-1
same,Ki,Adenosine receptor A1,4.3 nM
same,Na,Rattus norvegicus [32],0.434 m equiv 6hr-1 100g-1
same,T/C,Rattus norvegicus [5],2.51
same,T/C,Rattus norvegicus [33],2.06
same,T/C,Rattus norvegicus [34],1.72
